According to US12390447B2, “Sirtuin 6 protein deacylase (SIRT6) activators” (Wisconsin Alumni Research Foundation, priority 2019, dated 2025):

Tests used:
SIRT6 = SIRT6 (Homo sapiens, UniProt Q8N6T7); experiment: SIRT6 deacetylation of H3K9ac peptide, fold-activation versus activator concentration; assay type: biochemical; settings: for EC50: H3K9ac peptide 20 μM
Experimental: (1A) Compound libraries BML-2803, BML-2800, and an additional set of 178 molecules were screened at 100 μM for their ability to stimulate SIRT6 (1 μM) deacetylation of H3K9ac peptide (20 μM) in the presence of 0.5 mM NAD^+. SIRT6 activity was measured by HPLC quantification of H3K9ac and deacetylated product (inset) and fold activations relative to DMSO control were determined and compiled. (1B) Fold-activation of SIRT6 (1 μM) determined in the presence of either 0-400 μM CL4, 0-150 μM TTNPB, 0-100 μM Lysophosphatidic acid (LPA), or 0-200 μM linoleoylglycine (LGly). Maximum fold-activation and EC50 determined by sigmoidal curve fit. (1C) Steady-state kinetic analysis of SIRT6 (1 μM) deacetylation was conducted with 0-250 μM H3K9ac peptide in the presence of 100 μM CL4, 50 μM TTNPB, 50 μM LPA, or 50 μM LGly. Constants Km, H3K9ac and kcat were determined by fitting data to Michaelis-Menten equation. (1D) Fold-activations of SIRT1 (0.1 μM), SIRT2 (0.2 μM), SIRT3 (1 μM), SIRT5 (2 μM), and SIRT6 (1 μM) determined in the presence of CL4 (100 μM), TTNPB (50 μM), and LPA (50 μM) relative to DMSO control against 20 μM H3K9ac peptide and 0.5 mM NAD^+. Mean values reported with error bars representing standard deviation of at least three replicates.
All sirtuin deacylation assays were carried out at 37° C. in 20 mM potassium phosphate pH 7.5 with 0.5 mM NAD^+, 10% DMSO, and 20 μM H3K9ac or H3K9myr peptides, unless otherwise noted in legend, and quenched by the addition of 2% TFA final. Steady-state reactions were constrained to less than 20% substrate turnover to prevent product inhibition. A variety of times were required to monitor SIRT6 deacetylation (2-60 minutes) under this restraint given the ability to strongly activate catalysis. In these cases, specific activities were determined and either reported as is or as fold-activation of specific activity. Deacylation reactions were analyzed by reversed phase high-performance liquid chromatography on a Kinetex C18 column (100 Å, 100×4.6 mm, 2.6 μm, Phenomenex) by monitoring the formation of the deacylated product at 214 nm. Deacetylation reactions were analyzed using a gradient of 33-100% B (30% acetonitrile with 0.05% TFA) in 8 min at 1.6 mL min^−1. Demyristoylation reactions were analyzed using a gradient of 3 to 100% B (acetonitrile with 0.05% TFA) in 10 min at 1.6 mL min^−1. The product and substrate peaks were quantified and ratio of these allowed for quantification of product formation. […]

[1] = Micelle formation with fluorescent membrane probe diphenylhexatriene (DPH); assay type: physicochemical
[2] = SIRT6 1 μM, 0.5 mM NAD+, sigmoidal curve fit

Chain of SIRT6 (Q8N6T7 whole entry): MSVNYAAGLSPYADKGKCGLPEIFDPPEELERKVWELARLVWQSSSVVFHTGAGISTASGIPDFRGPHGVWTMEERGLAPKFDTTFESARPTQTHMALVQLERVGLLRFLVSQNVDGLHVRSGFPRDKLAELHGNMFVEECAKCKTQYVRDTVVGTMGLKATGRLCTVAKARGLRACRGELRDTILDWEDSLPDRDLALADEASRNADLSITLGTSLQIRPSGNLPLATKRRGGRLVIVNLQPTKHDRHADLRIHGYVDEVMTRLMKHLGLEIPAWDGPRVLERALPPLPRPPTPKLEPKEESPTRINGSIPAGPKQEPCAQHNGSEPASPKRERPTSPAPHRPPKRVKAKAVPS

| concentration required to stimulate 4-fold activation of SIRT6 (SIRT6; SIRT6 1 μM, H3K9ac 20 μM, 0.5 mM NAD+) [µM] | EC50 (SIRT6; [2]) [µM] | micelle formation (in words) [1] | SIRT6 deacetylase activity at high activator concentration (SIRT6; 400 μM compound) | increased potency over CL-4 (SIRT6; by concentration required for 4-fold activation of SIRT6 deacetylase activity) [fold] | FAmax (maximum fold-activation) (SIRT6; SIRT6 1 μM, sigmoidal curve fit) [fold] | concentration at which micelle formation was observed [1] [µM] | SMILES |
| --- | --- | --- | --- | --- | --- | --- | --- |
| 35 | 97 ± 2 | not observed to form micelles |  |  |  |  | O=C(O)c1ccc2c(c1)C(=O)N(c1ccc(NC(=O)c3ccc(Cl)cc3Cl)c(Cl)c1)C2=O [CL-4, 2-(3-chloro-4-(2,4-dichlorobenzamido)phenyl)-1,3-dioxoisoindoline-5-carboxylic acid] |
|  |  |  | inhibited | 7 |  |  | O=C(O)c1ccc2c(c1)C(=O)N(c1ccc(N(C(=O)c3c(Cl)cc(Cl)cc3Cl)C(=O)c3c(Cl)cc(Cl)cc3Cl)c(Cl)c1)C2=O [CL-5D, 2-(3-chloro-4-(2,4,6-trichloro-N-(2,4,6-trichlorobenzoyl)benzamido)phenyl)-1,3-dioxoisoindoline-5-carboxylic acid] |
|  | 88 ± 4 |  |  |  | 17 ± 0.8 | > 300 | CCCCC/C=C\C/C=C\CCCCCCCC(=O)NCC(=O)O [N-Linoleoylglycine, linoleoyl-glycine, reference compound] |
